Measured values as given in publication PMC10299588, “Bromotyrosine-Derived Metabolites from a Marine Sponge Inhibit Pseudomonas aeruginosa Biofilms” (International Journal of Molecular Sciences, 2023).
“Also recorded” adds a separate entry of the source.

What was measured:
Type in all cases: cell-based, Pseudomonas aeruginosa
[1] = test system: outer membrane of wild-type PAO1 cells; test: NPN uptake assay (outer membrane permeability); settings: PAO1 pre-treated with 100 µM CCCP, 30 min; polymyxin B at 6.4 and 10 µg/mL
Procedure: The effect of ianthelliformisamines on the permeability of the outer membrane was determined using an NPN uptake assay. NPN (1-N-phenylnapthylamine), a hydrophobic fluorescent probe, is excluded from the intact outer membranes of Gram-negative bacteria such as P. aeruginosa. It intensely fluoresces once it gains access to the phospholipid layer of membrane-compromised cells (Figure 5A). The experiments were conducted with different concentrations of ianthelliformisamines and sub-inhibitory doses of ciprofloxacin. […] The level of fluorescence intensity in bacteria challenged with test compounds, even at highest testing concentrations, resembled that in cells treated with DMSO.
The permeability of the outer membrane upon exposure to test compounds was assessed using a 1-N-phenylnapthylamine (NPN) uptake assay. An overnight culture of PAO1 was grown to an OD600 of 0.5, centrifuged, washed with HEPES buffer (5 mM, pH 7.2), and re-suspended in HEPES buffer containing 100 µM CCCP. […] Ninety microliters of the cell suspension were added to the flat-bottomed, black 96-well plate containing 10 µL of test compounds, and the NPN fluorescence was immediately monitored using a BioTek Synergy H1 Hybrid microplate reader at an excitation of 350 nm and an emission of 420 nm every min for 30 min. […]

[2] = test system: planktonic P. aeruginosa PAO1; test: Minimum inhibitory concentration (MIC) determination; settings: Pseudomonas aeruginosa; planktonic (free-living) PAO1, LB medium, 18 h, 37 °C
Procedure: The minimum inhibitory concentration (MIC) of compounds and antibiotics were performed as previously described, with minor modification. […] Three antibiotics, including tobramycin, ciprofloxacin, and meropenem, were dissolved in water and filter sterilized. Ten microliters of two-fold serially diluted antibiotics were transferred to a 96-well Costar plate (Corning Inc., Corning, MA, USA) followed by the addition of 90 µL of diluted cultures. After an 18-h incubation at 37 °C in the static condition, optical density OD600 was monitored using a Synergy 2 microplate reader (BioTek, Winooski, VT, USA). […] The MIC was determined as the lowest concentrations of antibiotics that inhibit complete bacterial growth compared to growth control.

[3] = test system: DNA damage reporter strain MDM-623; test: Cellular bioluminescent assay (DNA damage reporter); settings: 8 h; ciprofloxacin at 0.0625, 0.083, 0.25 and 25 µg/mL
From the text: Ciprofloxacin, a fluroquinolone antibiotic, has been extensively utilized to treat various bacterial infections. It targets bacterial DNA topoisomerase and DNA gyrase, which produce breakage of double-stranded DNA, ultimately leading to cell death. […] In the effort of identifying the mechanisms of action of test compounds, we employed a DNA damage reporter strain MDM-623, which was constructed based on the promoter-luciferase reporter gene. The increased luminescence readouts are indicative of gyrase inhibition-induced promoter upregulation through the recA pathway. […] Nevertheless, there was no difference in the response of MDM-623 upon exposure to test compounds and the solvent (Figure 5E). The above results may imply that test compounds are unlikely to be DNA gyrase inhibitors and that their mechanism of action is unrelated to that of ciprofloxacin.
The reporter strain MDM-623 was kindly provided by Dr. Timothy Opperman (Microbiotix, Inc., Worcester, MA, USA). The strain harbors a promoter region from PA0614 fused to Photorhabdus luminescens luciferase luxCDABE operon, which was constructed to respond to DNA damage. All experiments were carried out as previously described with minor modification. […] Luminescence was monitored using a BioTek Synergy H1 Hybrid microplate reader for 8 h at 30-min intervals. […]

[4] = test system: PAO1ΔpelF (Pel deletion mutant); test: Biofilm inhibition assay (OD600 growth and resazurin biofilm viability); settings: ciprofloxacin alone, sub-MIC
Procedure: (§1) Figure 2 Biofilm assays to identify compounds that prevent biofilm formation. Biofilm inhibition assay. P. aeruginosa cultures were seeded into 384-well plates after dispensing compounds and antibiotics. The plates were incubated for 24 h at 37 °C followed by recording bacterial growth (OD600) and measuring the viability of biofilm bacteria using resazurin.
(§2) The overnight cultures at 37 °C in LB medium were washed once with sterile saline 0.9% (w/v) and adjusted to an OD600 of 0.05, and 1% inoculum was transferred into a fresh LB medium. Following incubation at 37 °C, 200 rpm for 6–6.5 h to reach the mid-log phase, the cells were washed once with sterile saline 0.9% and diluted to an OD600 of 0.01. Then, 45 µL aliquots were dispensed into 384-well plates (Greiner Bio-One, Kremsmünster, Austria, catalog no. 781091). In biofilm inhibition assays, test compounds (5 µL) were loaded prior to the addition of bacteria. The plates were incubated for 24 h at 37 °C in static conditions. The effects of compounds on bacterial growth and viability of biofilm bacteria were determined by the OD600 and resazurin metabolic assay, respectively. The final concentrations of DMSO in the assays were 1–2%. The negative controls or untreated cultures consisted of inoculum and different concentrations of DMSO. Antibiotic ciprofloxacin (0.25 µg/mL and 25 µg/mL) was used as positive controls. The initial OD600 and final OD600 were read before incubation at 37 °C and after 24 h incubation, respectively, followed by assessment of biofilm viability by resazurin metabolic assay. The experiments were carried out with three technical replicates and repeated at least twice. The growth inhibition was calculated as a function of the percentage of the total bacterial inhibition using Equation (1), where AB is the OD600 of LB medium, and AT0 and ATf are the OD600 recorded at inoculating time and at the end of the assay. (1) % Inhibition=100 × [ 1 − [OD600 (Asample Tf− Asample T0)−(AB Tf − AB T0)/OD600 (Anegative control Tf− Anegative control T0)−(AB Tf − AB T0)]]
(§3) Resazurin sodium salt (Sigma-Aldrich, St. Louis, MI, USA) was dissolved in Milli-Q water at 0.2% (w/v) and filter sterilized. The solution was stored at −20 °C in the dark. The assay was performed as previously described with modification. The cultures were withdrawn, and the plates were washed three times with sterile water using the plate washer (BioTek). To remove the remaining water in the wells, the plates were tapped with autoclaved paper towels. An amount of 50 µL of diluted RSZ solution in LB medium was added into each well, followed by incubation at 37 °C for 5–6 h. A microplate reader (BioTek Synergy 2) was used to measure the fluorescence intensity (excitation 530 nm, emission 590 nm). Data collected were determined as a function of fluorescence percentage using Equation (2), where FB is the fluorescence of the diluted RSZ solution in LB medium in the absence of P. aeruginosa cells. (2) % Inhibition=[(Fnegative control −FB )−(Fsample −FB )/(Fnegative control − FB )]×100

[5] = test system: PAO1ΔpslA (Psl deletion mutant); test: as above
Procedure: as §1, §2, §3

[6] = test system: PAO1ΔpslA biofilms; test: Fluorescence microscopy of biofilms (SYTO9/propidium iodide); settings: alone
Procedure: (§4) Biofilms of wild-type PAO1 and isogenic biofilm matrix component mutants were treated with ianthelliformisamines or ciprofloxacin alone and the combinations. Their biofilms were simultaneously stained with SYTO9 (green) and propidium iodide (red). Cells with intact membranes were stained green, while cells with compromised membranes were stained red.
(§5) For biofilm bacteria imaging, bacteria were cultured, treated with test compounds, and washed, as previously mentioned in the biofilm inhibition assay. The biofilm bacteria were stained using a LIVE/DEAD BacLight bacterial viability kit (Molecular Probes, Inc., Eugene, OR, USA), which consists of SYTO9 (green; staining cells with intact membrane) and propidium iodide (red; staining cells with compromised membrane). Images were captured using a high-content imaging system Operetta CLS (Perkin Elmer, Waltham, MA, USA) with a 60× water-immersion objective.

[7] = test system: PAO1 biofilms; test: as above
Procedure: as §4, §5

[8] = test system: PDO300Δalg8 biofilms; test: as above
Procedure: as §4, §5

[9] = test system: PDO300 biofilms; test: as above
Procedure: as §4, §5

[10] = test system: PAO1ΔpelF biofilms
Procedure: as §4, §5

In the case of polymyxin B, the “outer membrane permeabilization (NPN fluorescence)” value [1] is reported as “prominent fluorescence”.

NC[C@H]1O[C@H](O[C@H]2[C@H](O)[C@@H](O[C@H]3O[C@H](CO)[C@@H](O)[C@H](N)[C@H]3O)[C@H](N)C[C@@H]2N)[C@H](N)C[C@@H]1O [tobramycin, reference compound] was tested, and the MIC [2] was 2 µg/mL.

C[C@@H](O)[C@H]1C(=O)N2C(C(=O)O)=C(S[C@@H]3CN[C@H](C(=O)N(C)C)C3)[C@H](C)[C@H]12 [meropenem, reference compound] was tested, and the MIC [2] was 0.375 µg/mL.

In the case of O=C(O)c1cn(C2CC2)c2cc(N3CCNCC3)c(F)cc2c1=O [ciprofloxacin, reference compound], the “luminescence response of DNA damage reporter (gyrase inhibition)” value [3] is reported as “steadily enhanced”, the MIC [2] is reported as 0.25 µg/mL and the “biofilm response (reduction)” value [4] is reported as ~ 60%. For the same compound, the bacterial growth inhibition ([5]; alone at 1/3 MIC) was “moderately inhibited”, the “prevention of biofilm formation” value ([5]; alone at 1/3 MIC) was “completely prevented” and the “reduction of bacterial growth” value ([5]; alone at 1/3 and 1/4 MIC) was greater than 40%. For the same compound, the “suppression of biofilm formation” value ([5]; alone at 1/3 and 1/4 MIC) was ~ 100%, the “effect on survival of suspended cells” value ([5]; sub-lethal doses (1/3, 1/4 MIC) alone) was ~ 50% and the biofilm after treatment [6] was “unable to form biofilms; also recorded: eradicated”. For the same compound, the cell phenotype [7] was “long, filamentous phenotypes as well as small, round spheroplasts”, the cell phenotype [8] was “long, filamentous phenotypes as well as small, round spheroplasts” and the cell phenotype [9] was “long, filamentous phenotypes as well as small, round spheroplasts”. The cell phenotype [10] was “long, filamentous phenotypes as well as small, round spheroplasts”.
